Measured values published in BindingDB's records for doi:10.1016/j.bmc.2006.12.019 (Berlex, 2007).
pKi: −log10 of the molar value.

Target: T1, Serine protease 1 (Bos taurus, UniProt P00760)
T1 sequence (P00760 whole entry): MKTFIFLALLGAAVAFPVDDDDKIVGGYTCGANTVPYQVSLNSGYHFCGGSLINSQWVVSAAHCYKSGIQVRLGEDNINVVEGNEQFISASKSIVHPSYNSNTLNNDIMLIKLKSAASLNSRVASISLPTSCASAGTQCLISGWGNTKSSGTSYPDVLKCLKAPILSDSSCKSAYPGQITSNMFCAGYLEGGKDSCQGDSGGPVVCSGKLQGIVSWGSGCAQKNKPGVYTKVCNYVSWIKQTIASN
Assay: Enzyme Inhibition Assay
Experimental: The enzyme activities were determined kinetically as the initial rate of cleavage of a peptide p-nitroanilide. Km for enzyme and substrate was determined using four substrate dilutions. Enzyme was incubated with test compounds for 10 min; the reaction was then started by the addition of the substrate. […] IC50 values for inhibitors were determined from the dose response curve by fitting the data to the Hill equation. Ki,app values were calculated as the IC50/2, with the IC50 value determined at a substrate concentration equal to Km

pKi, < 5.30:
O=C(Nc1ccc(Cl)cc1)c1cc(Cl)ccc1NC(=O)c1scc(Cn2ncnn2)c1Cl [3-chloro-N-{4-chloro-2-[(4-chlorophenyl)carbamoyl]phenyl}-4-(2H-1,2,3,4-tetrazol-2-ylmethyl)thiophene-2-carboxamide]
O=C(Nc1ccc(Cl)cc1)c1cc(Cl)ccc1NC(=O)c1sc(CN2CCOCC2)cc1Cl [3-chloro-N-{4-chloro-2-[(4-chlorophenyl)carbamoyl]phenyl}-5-(morpholin-4-ylmethyl)thiophene-2-carboxamide]
O=C(Nc1ccc(Cl)cc1)c1cc(Cl)ccc1NC(=O)c1scc(CN2CCOCC2)c1Cl [3-chloro-N-{4-chloro-2-[(4-chlorophenyl)carbamoyl]phenyl}-4-(morpholin-4-ylmethyl)thiophene-2-carboxamide]
CN1CCN(Cc2c(C(=O)Nc3ccc(Cl)cc3C(=O)Nc3ccc(Cl)cc3)sc3ccccc23)CC1 [N-{4-chloro-2-[(4-chlorophenyl)carbamoyl]phenyl}-3-[(4-methylpiperazin-1-yl)methyl]-1-benzothiophene-2-carboxamide]
O=C(Nc1ccc(Cl)cc1)c1cc(Cl)ccc1NC(=O)c1sc2ccccc2c1Cl [3-chloro-N-{4-chloro-2-[(4-chlorophenyl)carbamoyl]phenyl}-1-benzothiophene-2-carboxamide]
O=C(Nc1ccc(Cl)cc1)c1cc(Cl)ccc1NC(=O)c1scc(Cn2cncn2)c1Cl [3-chloro-N-{4-chloro-2-[(4-chlorophenyl)carbamoyl]phenyl}-4-(1H-1,2,4-triazol-1-ylmethyl)thiophene-2-carboxamide]
O=C(Nc1ccc(Cl)cc1)c1cc(Cl)ccc1NC(=O)c1scc(COCC(O)CO)c1Cl (configuration not stated) [3-chloro-N-{4-chloro-2-[(4-chlorophenyl)carbamoyl]phenyl}-4-[(2,3-dihydroxypropoxy)methyl]thiophene-2-carboxamide]
O=C(Nc1ccc(Cl)cc1)c1cc(Cl)ccc1NC(=O)c1scc(Cn2cccn2)c1Cl [3-chloro-N-{4-chloro-2-[(4-chlorophenyl)carbamoyl]phenyl}-4-(1H-pyrazol-1-ylmethyl)thiophene-2-carboxamide]
CCN1CCN(Cc2csc(C(=O)Nc3ccc(Cl)cc3C(=O)Nc3ccc(Cl)cc3)c2Cl)CC1 [3-chloro-N-{4-chloro-2-[(4-chlorophenyl)carbamoyl]phenyl}-4-[(4-ethylpiperazin-1-yl)methyl]thiophene-2-carboxamide]
CN(CCN1CCCC1)Cc1csc(C(=O)Nc2ccc(Cl)cc2C(=O)Nc2ccc(Cl)cc2)c1Cl [3-chloro-N-{4-chloro-2-[(4-chlorophenyl)carbamoyl]phenyl}-4-({methyl[2-(pyrrolidin-1-yl)ethyl]amino}methyl)thiophene-2-carboxamide]
CCN(CC)CCN(C)Cc1csc(C(=O)Nc2ccc(Cl)cc2C(=O)Nc2ccc(Cl)cc2)c1Cl [3-chloro-N-{4-chloro-2-[(4-chlorophenyl)carbamoyl]phenyl}-4-({[2-(diethylamino)ethyl](methyl)amino}methyl)thiophene-2-carboxamide]
CN(C)Cc1c(C(=O)Nc2ccc(Cl)cc2C(=O)Nc2ccc(Cl)cc2)sc2ccccc12 [N-{4-chloro-2-[(4-chlorophenyl)carbamoyl]phenyl}-3-[(dimethylamino)methyl]-1-benzothiophene-2-carboxamide]
O=C(Nc1ccc(Cl)cc1)c1cc(Cl)ccc1NC(=O)c1scc(CN2CCSCC2)c1Cl [3-chloro-N-{4-chloro-2-[(4-chlorophenyl)carbamoyl]phenyl}-4-(thiomorpholin-4-ylmethyl)thiophene-2-carboxamide]
CN1CCN(Cc2ccc3c(Cl)c(C(=O)Nc4ccc(Cl)cc4C(=O)Nc4ccc(Cl)cc4)sc3c2)CC1 [3-chloro-N-{4-chloro-2-[(4-chlorophenyl)carbamoyl]phenyl}-6-[(4-methylpiperazin-1-yl)methyl]-1-benzothiophene-2-carboxamide]
O=C(Nc1ccc(Cl)cc1)c1cc(Cl)ccc1NC(=O)c1scc(Cn2ccnc2)c1Cl [3-chloro-N-{4-chloro-2-[(4-chlorophenyl)carbamoyl]phenyl}-4-(1H-imidazol-1-ylmethyl)thiophene-2-carboxamide]
COCCOCCOCc1csc(C(=O)Nc2ccc(Cl)cc2C(=O)Nc2ccc(Cl)cc2)c1Cl [3-chloro-N-{4-chloro-2-[(4-chlorophenyl)carbamoyl]phenyl}-4-{[2-(2-methoxyethoxy)ethoxy]methyl}thiophene-2-carboxamide]
CN(C)CCSCc1csc(C(=O)Nc2ccc(Cl)cc2C(=O)Nc2ccc(Cl)cc2)c1Cl [3-chloro-N-{4-chloro-2-[(4-chlorophenyl)carbamoyl]phenyl}-4-({[2-(dimethylamino)ethyl]sulfanyl}methyl)thiophene-2-carboxamide]
COCCOCc1csc(C(=O)Nc2ccc(Cl)cc2C(=O)Nc2ccc(Cl)cc2)c1Cl [3-chloro-N-{4-chloro-2-[(4-chlorophenyl)carbamoyl]phenyl}-4-[(2-methoxyethoxy)methyl]thiophene-2-carboxamide]
CN(C)CCN(C)Cc1csc(C(=O)Nc2ccc(Cl)cc2C(=O)Nc2ccc(Cl)cc2)c1Cl [3-chloro-N-{4-chloro-2-[(4-chlorophenyl)carbamoyl]phenyl}-4-({[2-(dimethylamino)ethyl](methyl)amino}methyl)thiophene-2-carboxamide]
Cc1csc(C(=O)Nc2ccc(Cl)cc2C(=O)Nc2ccc(Cl)cc2)c1Cl [3-chloro-N-{4-chloro-2-[(4-chlorophenyl)carbamoyl]phenyl}-4-methylthiophene-2-carboxamide]
O=C(Nc1ccc(Cl)cc1)c1cc(Cl)ccc1NC(=O)c1scc(Cn2ccnn2)c1Cl [3-chloro-N-{4-chloro-2-[(4-chlorophenyl)carbamoyl]phenyl}-4-(1H-1,2,3-triazol-1-ylmethyl)thiophene-2-carboxamide]
CC1(C)OCC(COCc2csc(C(=O)Nc3ccc(Cl)cc3C(=O)Nc3ccc(Cl)cc3)c2Cl)O1 (configuration not stated) [3-chloro-N-{4-chloro-2-[(4-chlorophenyl)carbamoyl]phenyl}-4-{[(2,2-dimethyl-1,3-dioxolan-4-yl)methoxy]methyl}thiophene-2-carboxamide]
CSCc1csc(C(=O)Nc2ccc(Cl)cc2C(=O)Nc2ccc(Cl)cc2)c1Cl [3-chloro-N-{4-chloro-2-[(4-chlorophenyl)carbamoyl]phenyl}-4-[(methylsulfanyl)methyl]thiophene-2-carboxamide]
CN(CCOCCO)Cc1csc(C(=O)Nc2ccc(Cl)cc2C(=O)Nc2ccc(Cl)cc2)c1Cl [3-chloro-N-{4-chloro-2-[(4-chlorophenyl)carbamoyl]phenyl}-4-({[2-(2-hydroxyethoxy)ethyl](methyl)amino}methyl)thiophene-2-carboxamide]
CC(=O)N1CCN(Cc2csc(C(=O)Nc3ccc(Cl)cc3C(=O)Nc3ccc(Cl)cc3)c2Cl)CC1 [3-chloro-N-{4-chloro-2-[(4-chlorophenyl)carbamoyl]phenyl}-4-[(4-acetylpiperazin-1-yl)methyl]thiophene-2-carboxamide]
CN(Cc1csc(C(=O)Nc2ccc(Cl)cc2C(=O)Nc2ccc(Cl)cc2)c1Cl)CC(O)CO (configuration not stated) [3-chloro-N-{4-chloro-2-[(4-chlorophenyl)carbamoyl]phenyl}-4-{[(2,3-dihydroxypropyl)(methyl)amino]methyl}thiophene-2-carboxamide]
CN(C)CCCN(C)Cc1csc(C(=O)Nc2ccc(Cl)cc2C(=O)Nc2ccc(Cl)cc2)c1Cl [3-chloro-N-{4-chloro-2-[(4-chlorophenyl)carbamoyl]phenyl}-4-({[3-(dimethylamino)propyl](methyl)amino}methyl)thiophene-2-carboxamide]
O=C(O)CN1CCN(Cc2ccc3c(Cl)c(C(=O)Nc4ccc(Cl)cc4C(=O)Nc4ccc(Cl)cc4)sc3c2)CC1 [2-(4-{[3-chloro-2-({4-chloro-2-[(4-chlorophenyl)carbamoyl]phenyl}carbamoyl)-1-benzothiophen-6-yl]methyl}piperazin-1-yl)acetic acid]
CN1CCN(Cc2cc(Cl)c(C(=O)Nc3ccc(Cl)cc3C(=O)Nc3ccc(Cl)cc3)s2)CC1 [3-chloro-N-{4-chloro-2-[(4-chlorophenyl)carbamoyl]phenyl}-5-[(4-methylpiperazin-1-yl)methyl]thiophene-2-carboxamide]
CN(C)Cc1ccc2c(Cl)c(C(=O)Nc3ccc(Cl)cc3C(=O)Nc3ccc(Cl)cc3)sc2c1 [3-chloro-N-{4-chloro-2-[(4-chlorophenyl)carbamoyl]phenyl}-6-[(dimethylamino)methyl]-1-benzothiophene-2-carboxamide]
CN(CCO)Cc1csc(C(=O)Nc2ccc(Cl)cc2C(=O)Nc2ccc(Cl)cc2)c1Cl [3-chloro-N-{4-chloro-2-[(4-chlorophenyl)carbamoyl]phenyl}-4-{[(2-hydroxyethyl)(methyl)amino]methyl}thiophene-2-carboxamide]
CN1CCN(Cc2csc(C(=O)Nc3ccc(Cl)cc3C(=O)Nc3ccc(Cl)cc3)c2Cl)CC1 [thiophene-containing non-amidine inhibitor, 31]
